Experimental data reported in ChEMBL document CHEMBL4680208, “Sulfone derivatives enter the cytoplasm of Candida albicans sessile cells” (Eur J Med Chem, 2020).
Converted amounts (≈) assume the structure as drawn. The source made the active and inactive calls. No cut-off for these calls is given here.

Legend:
[1] = system: Candida albicans; test: Antifungal activity against Candida albicans 90028 assessed as fungal growth inhibition measured after 48 hrs by microdilution method; format: functional
[2] = Cytotoxicity against human MRC5 cells by CellTiter 96 Aqueous One Solution Reagent based assay; format: cell-based
[3] = system: Candida albicans; test: Induction of plasma membrane disruption in Candida albicans assessed as accidental type cell death at 0.25 ug/ml measured after 18 hrs by Annexin V-FITC/propidium iodide staining based flow cytometry (reference value: 1.74 +/- 1.37%); details: dose 0.25 µg/ml
[4] = system: Candida albicans; test: Antifungal activity against Candida albicans 90028 assessed as fungal growth inhibition at 0.0625 ug/ml measured after 18 hrs by microdilution method relative to control; format: functional; details: read-out: GI
[5] = system: Candida albicans; test: Fungicidal activity against Candida albicans 90028 preincubated for 48 hrs followed by plating on SD agar and measured after 48 hrs; format: functional; details: time 96 hrs
[6] = system: Vero; test: Cytotoxicity against African green monkey Vero cells at 0.25 to 512 ug/ml by XTT assay relative to control; format: cell-based; details: chlorocebus sabaeus, at 0.25 to 512 µg/mL, dose 0.25-512 µg/ml
[7] = system: Candida albicans; test: Antifungal activity against Candida albicans 90028 assessed as fungal growth inhibition at 0.0313 ug/ml measured after 18 hrs by microdilution method relative to control; format: functional; details: read-out: GI
[8] = system: Candida albicans; test: Antibiofilm activity against Candida albicans 90028 assessed as increasing in cell killing by XTT assay; format: functional
[9] = system: Candida albicans; test: Antifungal activity against Candida albicans 90028 assessed as fungal growth inhibition at 0.125 ug/ml measured after 48 hrs by microdilution method relative to control; format: functional; details: read-out: GI
[10] = system: Candida albicans; test: Antifungal activity against Candida albicans 90028 assessed as fungal growth inhibition at 2 ug/ml measured after 18 hrs by microdilution method relative to control; format: functional; details: read-out: GI
[11] = system: Candida albicans; test: Antifungal activity against Candida albicans 90028 assessed as fungal growth inhibition at 2 ug/ml measured after 48 hrs by microdilution method relative to control; format: functional; details: read-out: GI
[12] = system: Candida albicans; test: Antifungal activity against Candida albicans 90028 assessed as fungal growth inhibition at 8 ug/ml measured after 18 hrs by microdilution method relative to control; format: functional; details: read-out: GI
[13] = system: Candida albicans; test: Antifungal activity against Candida albicans 90028 assessed as fungal growth inhibition at 0.5 ug/ml measured after 18 hrs by microdilution method relative to control; format: functional; details: read-out: GI
[14] = system: Candida albicans; test: Antifungal activity against Candida albicans 90028 assessed as fungal growth inhibition at 0.0313 ug/ml measured after 48 hrs by microdilution method relative to control; format: functional; details: read-out: GI
[15] = system: Candida albicans; test: Antifungal activity against Candida albicans 90028 assessed as fungal growth inhibition at 1 ug/ml measured after 18 hrs by microdilution method relative to control; format: functional; details: read-out: GI
[16] = system: Candida albicans; test: Antifungal activity against Candida albicans 90028 assessed as fungal growth inhibition at 0.25 ug/ml measured after 18 hrs by microdilution method relative to control; format: functional; details: read-out: GI
[17] = system: Candida albicans; test: Anti-adhesive activity against Candida albicans assessed as reduction in […] adhesion to human TR146 cells at 0.25 ug/ml incubated for 2 hrs prior to cell infection and measured after 2 hrs by colony counting method relative to control; format: functional; design: scale not given: the % may be the effect or the level left; details: dose 0.25 µg/ml; time 4 hrs
[18] = system: Candida albicans; test: Antifungal activity against Candida albicans 90028 assessed as fungal growth inhibition at 1 ug/ml measured after 48 hrs by microdilution method relative to control; format: functional; details: read-out: GI
[19] = Induction of adhesive activity against Candida albicans assessed as increase in […] adhesion to human TR146 cells at 0.125 ug/ml incubated for 2 hrs prior to cell infection and measured after 2 hrs by colony counting method relative to control; format: cell-based; details: tr146, 2 h, dose 0.125 µg/ml
[20] = system: Candida albicans; test: Antifungal activity against Candida albicans 90028 assessed as fungal growth inhibition at 0.0625 ug/ml measured after 48 hrs by microdilution method relative to control; format: functional; details: read-out: GI
[21] = system: Candida albicans; test: Antifungal activity against Candida albicans 90028 assessed as fungal growth inhibition at 16 ug/ml measured after 48 hrs by microdilution method relative to control; format: functional; details: read-out: GI
[22] = Toxicity in Galleria mellonella larvae assessed as survival at 16 ug/ml relative to control; details: at 16 µg/mL
[23] = system: Candida albicans; test: Antibiofilm activity against Candida albicans 90028 assessed as cell killing at 256 ug/ml by XTT assay relative to control; format: functional; details: dose 256 µg/ml
[24] = system: Candida albicans; test: Antifungal activity against Candida albicans 90028 infected in Galleria mellonella larvae at 16 ug/ml by H and E staining based histological analysis; format: functional, organism-based; details: dose 16.0 µg/ml
[25] = system: Candida albicans; test: Antifungal activity against Candida albicans 90028 assessed as fungal growth inhibition at 8 ug/ml measured after 48 hrs by microdilution method relative to control; format: functional; details: read-out: GI
[26] = system: Candida albicans; test: Antifungal activity against Candida albicans 90028 assessed as fungal growth inhibition at 0.25 ug/ml measured after 48 hrs by microdilution method relative to control; format: functional; details: read-out: GI
[27] = system: Candida albicans; test: Antifungal activity against Candida albicans 90028 assessed as fungal growth inhibition at 0.5 ug/ml measured after 48 hrs by microdilution method relative to control; format: functional; details: read-out: GI
[28] = system: Candida albicans; test: Antifungal activity against Candida albicans 90028 assessed as fungal growth inhibition at 4 ug/ml measured after 18 hrs by microdilution method relative to control; format: functional; details: read-out: GI
[29] = system: Candida albicans; test: Antifungal activity against Candida albicans 90028 assessed as fungal growth inhibition at 16 ug/ml measured after 18 hrs by microdilution method relative to control; format: functional; details: read-out: GI
[30] = system: Candida albicans; test: Antifungal activity against Candida albicans 90028 assessed as fungal growth inhibition at 4 ug/ml measured after 48 hrs by microdilution method relative to control; format: functional; details: read-out: GI
[31] = system: Candida albicans; test: Antifungal activity against Candida albicans 90028 assessed as fungal growth inhibition at 0.125 ug/ml measured after 18 hrs by microdilution method relative to control; format: functional; details: read-out: GI
[32] = system: Candida albicans; test: Anti-adhesive activity against Candida albicans assessed as reduction in […] adhesion to human TR146 cells at 4 ug/ml incubated for 2 hrs prior to cell infection and measured after 2 hrs by colony counting method relative to control; format: functional; design: scale not given: the % may be the effect or the level left; details: dose 4 µg/ml; time 4 hrs
[33] = Induction of adhesive activity against Candida albicans assessed as increase in […] adhesion to human TR146 cells at 2 ug/ml incubated for 2 hrs prior to cell infection and measured after 2 hrs by colony counting method relative to control; format: cell-based; details: tr146, 4 h, dose 2 µg/ml
[34] = system: Candida albicans; test: Antifungal activity against Candida albicans 90028 infected in Galleria mellonella larvae at 4 ug/ml by H and E staining based histological analysis; format: functional, organism-based; details: dose 4.0 µg/ml
[35] = system: Candida albicans; test: Induction of plasma membrane disruption in Candida albicans assessed as accidental type cell death at 4 ug/ml measured after 18 hrs by Annexin V-FITC/propidium iodide staining based flow cytometry (reference value: 1.74 +/- 1.37%); details: dose 4.0 µg/ml
[36] = system: Candida albicans; test: Antibiofilm activity against Candida albicans 90028 assessed as cell killing at 128 ug/ml by XTT assay relative to control; format: functional; details: dose 128 µg/ml
[37] = system: Candida albicans; test: Antifungal activity against Candida albicans 90028 infected in Galleria mellonella larvae assessed as increase in larvae survival at MFC measured 96 hrs post-infection relative to control; format: functional
[38] = system: Candida albicans; test: Induction of morphological changes in Candida albicans biofilm infected in human TR146 cells at 16 ug/ml measured after 20 hrs by fluorescence microscopy based QCM-D analysis; format: functional, organism-based; details: dose 16.0 µg/ml
[39] = Cytotoxicity against human TR146 cells assessed as induction of lysosomal membrane permeabilization at 16 ug/ml measured after 18 hrs by AO/propidium iodide staining based confocal laser scanning microscopy; format: cell-based; details: tr146, 18 h, dose 16 µg/ml
[40] = system: Vero; test: Cytotoxicity against African green monkey Vero cells at 0.25 to 8 ug/ml after 18 hrs by XTT assay relative to control; format: cell-based; details: chlorocebus sabaeus, at 0.25 to 8 µg/mL, dose 0.25-8 µg/ml
[41] = Cytotoxicity against African green monkey Vero cells by XTT assay; format: cell-based; details: chlorocebus sabaeus

| SMILES | CC50 [2] [µg/mL] | inhibition of growth at 0.0625 µg/mL [4] [%] | MFC [5] [µg/mL] | inhibition of growth at 0.0313 µg/mL [7] [%] | CC50 [8] [µg/mL] | inhibition of growth at 0.125 µg/mL [9] [%] | inhibition of growth at 2 µg/mL [10] [%] | inhibition of growth at 2 µg/mL [11] [%] | inhibition of growth at 8 µg/mL [12] [%] | inhibition of growth at 0.5 µg/mL [13] [%] | inhibition of growth at 0.0313 µg/mL [14] [%] | inhibition of growth at 1 µg/mL [15] [%] | inhibition of growth at 0.25 µg/mL [16] [%] | inhibition of growth at 1 µg/mL [18] [%] | inhibition of growth at 0.0625 µg/mL [20] [%] | inhibition of growth at 16 µg/mL [21] [%] | survival [22] [%] | inhibition of growth at 8 µg/mL [25] [%] | inhibition of growth at 0.25 µg/mL [26] [%] | inhibition of growth at 0.5 µg/mL [27] [%] | further results |
| --- | --- | --- | --- | --- | --- | --- | --- | --- | --- | --- | --- | --- | --- | --- | --- | --- | --- | --- | --- | --- | --- |
| NNc1ccc(S(=O)(=O)C(F)(F)Cl)cc1[N+](=O)[O-] | ≥ 16 | 97.6 | 0.25 (≈ 0.829 µM) | 93.8 | ≤ 128 | 98.1 | 100 | 99.7 | 100 | 99.9 | 94.2 | 99.9 | 98.8 | 98.2 | 95.8 | 100 | 93 | 100 | 98.4 | 98.9 | MIC [1]: inactive; Activity [3]: 83.1%; Activity [6]: 93.43%; Activity [17]: 5.88%; fold change (FC) [19]: 11.76; Activity [23]: 40%; Activity [24]: inactive; inhibition of growth at 4 µg/mL [28]: 100%; inhibition of growth at 16 µg/mL [29]: 100%; inhibition of growth at 4 µg/mL [30]: 100%; inhibition of growth at 0.125 µg/mL [31]: 98.4% |
| NNc1ccc(S(=O)(=O)C(Cl)(Cl)Br)cc1[N+](=O)[O-] | ≥ 16 | 99.4 | 4 (≈ 10.6 µM) | 99.7 | ≤ 128 | 98.9 | 100 | 99.9 | 99.9 | 99.7 | 98.7 | 99.8 | 98.9 | 99.2 | 98.9 | 100 | 93 | 100 | 98.9 | 99.2 | Activity [32]: 100%; MIC90 [1]: 2 µg/mL (≈ 5.28 µM); fold change (FC) [33]: 1.03; Activity [34]: Active; Activity [35]: 79%; Activity [36]: 40%; Activity [37]: 63.57%; Activity [38]: Active; Activity [39]: Non-Toxic; Activity [40]: 43.12%; inhibition of growth at 4 µg/mL [28]: 99.7%; inhibition of growth at 16 µg/mL [29]: 99.9%; inhibition of growth at 4 µg/mL [30]: 100%; CC50 [41]: ≥ 8 µg/mL; inhibition of growth at 0.125 µg/mL [31]: 99.2% |
